Residue numbers refer to the chain shown, from its start.
Experiments:
[1] = target: T1, Rat Androgen Receptor (Rattus norvegicus, UniProt P15207); test: Rat Androgen Receptor Binding (polarscreen AR competitor assay, fluorescence polarization); conditions: displacement of Fluormone AL Green, 4 hours at RT, read-out: AR rat-fluorimetric
T1 construct: purchased Life Technologies A15880
T1 sequence (P15207 646-902 limits assumed): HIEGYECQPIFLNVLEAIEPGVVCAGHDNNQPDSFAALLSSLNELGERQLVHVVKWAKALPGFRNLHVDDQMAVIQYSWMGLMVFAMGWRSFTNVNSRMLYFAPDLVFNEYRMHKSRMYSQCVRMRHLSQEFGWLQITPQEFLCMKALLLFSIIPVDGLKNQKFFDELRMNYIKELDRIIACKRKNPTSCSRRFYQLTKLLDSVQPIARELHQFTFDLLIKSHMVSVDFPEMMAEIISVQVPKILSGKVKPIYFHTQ
Summary of the method: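 Fluorescence-polarization competition of Fluormone AL Green binding to rat androgen receptor; compounds screened in duplicate at 1 and 10 μM, 4 h at RT, read at λexc 485/λem 535 nm. IC50 from 1:10 dilution series, 10 μM to 0.1 nM, in 1× buffer.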

[2] = target: T2, human androgen receptor (Homo sapiens, UniProt P10275, T878A); test: Human Androgen Receptor Binding (radioligand binding, LnCap prostate cancer cell line); conditions: LnCap cells, displacement of [^3H]-methyltrienolone, 2 hours at 37° C.; read-out: AR LNCaP
T2 construct: endogenously expressed human androgen receptor using the LnCap prostate cancer cell line; endogenous in cells; host or cells: LNCaP prostate cancer cell line (whole cells)
T2 sequence (P10275 1-920 T878A): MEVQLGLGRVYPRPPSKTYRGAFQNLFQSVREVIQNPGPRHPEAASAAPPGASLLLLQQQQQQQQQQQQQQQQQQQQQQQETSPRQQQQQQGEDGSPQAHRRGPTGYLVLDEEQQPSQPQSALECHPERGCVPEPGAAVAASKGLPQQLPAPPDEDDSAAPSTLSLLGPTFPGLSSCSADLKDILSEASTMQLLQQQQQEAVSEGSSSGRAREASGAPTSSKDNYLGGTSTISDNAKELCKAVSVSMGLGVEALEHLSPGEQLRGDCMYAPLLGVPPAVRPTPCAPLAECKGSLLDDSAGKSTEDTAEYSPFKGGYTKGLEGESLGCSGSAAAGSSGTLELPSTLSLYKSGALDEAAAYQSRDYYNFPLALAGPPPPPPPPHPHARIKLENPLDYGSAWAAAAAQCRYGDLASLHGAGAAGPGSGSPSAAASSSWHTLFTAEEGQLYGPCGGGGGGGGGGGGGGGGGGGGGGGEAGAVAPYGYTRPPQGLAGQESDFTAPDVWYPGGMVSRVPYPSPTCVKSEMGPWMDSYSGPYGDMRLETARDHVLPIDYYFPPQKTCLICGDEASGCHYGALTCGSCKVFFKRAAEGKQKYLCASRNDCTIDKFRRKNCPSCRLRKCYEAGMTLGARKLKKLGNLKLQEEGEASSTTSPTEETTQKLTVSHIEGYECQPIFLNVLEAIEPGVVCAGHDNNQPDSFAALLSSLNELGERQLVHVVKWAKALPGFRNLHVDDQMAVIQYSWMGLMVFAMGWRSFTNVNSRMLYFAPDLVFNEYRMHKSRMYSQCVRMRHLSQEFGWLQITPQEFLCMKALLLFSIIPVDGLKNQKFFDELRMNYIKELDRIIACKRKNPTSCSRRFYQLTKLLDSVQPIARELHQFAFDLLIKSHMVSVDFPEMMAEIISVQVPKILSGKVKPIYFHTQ
Summary of the method: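 Whole-cell displacement of [3H]-methyltrienolone from endogenous AR (T878A) in LnCap cells, in RPMI with 0.1% BSA and triamcinolone acetonide. Compounds 10 μM to 0.1 nM in 1:10 steps, 2 h at 37 °C; cells washed, SDS-lysed, bound radioactivity by scintillation counting for IC50.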

[3] = target: T3, Human Glucocorticoid Receptor (Homo sapiens, UniProt P04150); test: Competition Binding in IM-9 Human Glucocorticoid Receptor (GR IM-9); conditions: cytosol from IM-9 cell line, 1.5 nM [3H]-Dexamethasone, 4° C. for 6 hours
T3 construct: endogenous in cells; host or cells: cytosol from IM-9 cell line
T3 sequence (P04150 1-777): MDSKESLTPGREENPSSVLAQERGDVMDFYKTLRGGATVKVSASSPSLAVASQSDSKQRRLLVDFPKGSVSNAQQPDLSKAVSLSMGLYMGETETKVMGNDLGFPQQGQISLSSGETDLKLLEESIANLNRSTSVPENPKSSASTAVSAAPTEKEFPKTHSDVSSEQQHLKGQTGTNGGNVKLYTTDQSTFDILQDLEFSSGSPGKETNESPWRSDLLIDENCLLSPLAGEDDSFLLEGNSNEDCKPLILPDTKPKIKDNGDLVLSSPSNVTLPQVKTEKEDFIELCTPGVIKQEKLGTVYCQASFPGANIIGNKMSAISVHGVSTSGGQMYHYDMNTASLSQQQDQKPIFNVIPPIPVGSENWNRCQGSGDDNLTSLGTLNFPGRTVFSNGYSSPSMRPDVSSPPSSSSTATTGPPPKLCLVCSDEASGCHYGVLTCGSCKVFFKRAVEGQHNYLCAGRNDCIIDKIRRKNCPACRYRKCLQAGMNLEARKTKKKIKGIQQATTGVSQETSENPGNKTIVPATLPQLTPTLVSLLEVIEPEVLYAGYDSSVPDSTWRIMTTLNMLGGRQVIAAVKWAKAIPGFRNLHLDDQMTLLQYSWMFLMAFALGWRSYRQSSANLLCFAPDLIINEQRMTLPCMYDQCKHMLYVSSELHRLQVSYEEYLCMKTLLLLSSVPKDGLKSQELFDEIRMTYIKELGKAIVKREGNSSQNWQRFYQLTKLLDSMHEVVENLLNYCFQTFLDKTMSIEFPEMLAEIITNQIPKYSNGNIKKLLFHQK
Summary of the method: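 Radioligand competition using 100 μg IM-9 cell cytosol and 1.5 nM [3H]-dexamethasone, incubated 6 h at 4° C in TES/molybdate buffer, pH 7.4. Filtration on PEI-treated GF/B filters, scintillation counting; nonspecific binding defined with 10 μM triamcinolone.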

[4] = target: T4, AR-Receptor (Homo sapiens, UniProt P10275); test: Functional Assay AR-Receptor (MDA-MB-453 cells, luciferase); assay type: cell-based; conditions: antagonist effect in the presence of DHT 1 nM, 24 h, luciferase luminescence, read-out: AR antag KB
T4 sequence (P10275 1-920 Q868H): T2 sequence (P10275 1-920 T878A) with Q868H, A878T
Procedure: Functional Assay AR-Receptor
MDA-MB-453 cells were cultured in DMEM (ATCC, ref 30-2002), 10% FBS, 1% penicillin, 1% streptomycin, 75 μg/ml gentamycin.
The day before performing assay, the cells were trypsinized and seeded in a 384-well plate (Greiner, ref 781098) (8000 cells/well) in 50 μl of complete culture medium. Cells were stores at 37° C. in a 5% CO2 atmosphere overnight.
The medium was replaced by 50 μl complete growth medium with 0.1% FBS. Compounds were dispensed with Echo 550 (Labcyte) and incubated for 24 h at 37° C. in a 5% CO2 atmosphere. Antagonist effect was measured in the presence of DHT 1 nM.
After incubation, assay medium removed and 20 μl of 1× Promega lysis buffer were added to each well. The plate was incubated 15 minutes at RT and quick-frozen to −80° C. and the thaw to room temperature. 50 μl of luciferase substrate (E4550, Promega) were added to each well and luminescence (integration time 1000 msec) was read in an EnSpire multilabel reader (Perkin Elmer).

IC50 [1] [nM]	IC50 [2] [nM]	IC50 [3] [nM]	Kb [4] [nM]	Compound
100 to 1000	100 to 1000	< 100	–	CC(=O)C1=C(C)NC(C)=C(C(=O)OCC2CC2)C1c1csc2ccccc12 (centres unmarked) [Example C6, Cyclopropylmethyl 5-acetyl-4-(benzo[b]thiophen-3-yl)-2,6-dimethyl-1,4-dihydropyridine-3-carboxylate]
100 to 1000	< 100	100 to 1000	–	COC(=O)C1=C(C(F)(F)F)NC(C)=C(C(C)=O)C1c1csc2ccccc12 (centres unmarked) [Example C14, Methyl 5-acetyl-4-(benzo[b]thiophen-3-yl)-6-methyl-2-(trifluoromethyl)-1,4-dihydropyridine-3-carboxylate]
100 to 1000	100 to 1000	–	–	COC(=O)C1=C(CF)NC(C)=C(C(C)=O)C1c1csc2ccccc12 (centres unmarked) [Example C20, Methyl 5-acetyl-4-(benzo[b]thiophen-3-yl)-2-(fluoromethyl)-6-methyl-1,4-dihydropyridine-3-carboxylate]
–	–	–	100 to 1000	CC(=O)C1=C(C)NC(C)=C(C(=O)OCc2cccnc2)C1c1csc2ccc(F)cc12 (centres unmarked) [Example C57, Pyridin-3-ylmethyl 5-acetyl-4-(5-fluorobenzo[b]thiophen-3-yl)-2,6-dimethyl-1,4-dihydropyridine-3-carboxylate]
–	–	–	100 to 1000	CC(=O)C1=C(C)NC(C)=C(C(=O)OCc2cccnc2)C1c1csc2ccc(Cl)cc12 (centres unmarked) [Example C60, Pyridin-3-ylmethyl 5-acetyl-4-(5-chlorobenzo[b]thiophen-3-yl)-2,6-dimethyl-1,4-dihydropyridine-3-carboxylate]
–	–	–	100 to 1000	CC(=O)C1=C(C)NC(C)=C(C(=O)OCc2ccncc2)C1c1csc2ccc(Cl)cc12 (centres unmarked) [Example C62, Pyridin-4-ylmethyl 5-acetyl-4-(5-chlorobenzo[b]thiophen-3-yl)-2,6-dimethyl-1,4-dihydropyridine-3-carboxylate]
< 100	100 to 1000	≥ 1000	–	COC(=O)C1=C(N)NC(C)=C(C(C)=O)C1c1csc2ccccc12 (centres unmarked) [Example D1, Methyl 5-acetyl-2-amino-4-(benzo[b]thiophen-3-yl)-6-methyl-1,4-dihydropyridine-3-carboxylate]
< 100	< 100	–	–	CC1=C(C#N)C(c2csc3ccccc23)C(C#N)=C(C)N1 [Example E1, 4-(Benzo[b]thiophen-3-yl)-2,6-dimethyl-1,4-dihydropyridine-3,5-dicarbonitrile]
< 100	< 100	–	–	CC(=O)C1=C(C)NC(C)=C(C(C)=O)C1c1csc2ccccc12 [Example G1, 1,1′-(4-(benzo[b]thiophen-3-yl)-2,6-dimethyl-1,4-dihydropyridine-3,5-diyl)diethanone]
< 100	100 to 1000	–	–	CC(=O)C1=C(C)NC(C)=C(C(C)=O)C1c1csc2ncccc12 [Example H15, 1,1′-(2,6-Dimethyl-4-(thieno[2,3-b]pyridin-3-yl)-1,4-dihydropyridine-3,5-diyl)bis(ethan-1-one)]
< 100	< 100	–	–	COC(=O)C1=C(C)NC(C)=C(C(C)=O)C1c1csc2ncccc12 (centres unmarked) [Example J21, Methyl 5-acetyl-2,6-dimethyl-4-(thieno[2,3-b]pyridin-3-yl)-1,4-dihydropyridine-3-carboxylate]
< 100	< 100	< 100	–	COC(=O)C1=C(C2CC2)NC(C)=C(C(C)=O)C1c1csc2ccc(F)cc12 (centres unmarked) [Example J22, Methyl 5-acetyl-2-cyclopropyl-4-(5-fluorobenzo[b]thiophen-3-yl)-6-methyl-1,4-dihydropyridine-3-carboxylate]
–	–	–	100 to 1000	CC(=O)C1=C(C)NC(C2CC2)=C(C(=O)OCc2ccncc2)C1c1csc2ccc(Cl)cc12 (centres unmarked) [Example J34, Pyridin-4-ylmethyl 5-acetyl-4-(5-chlorobenzo[b]thiophen-3-yl)-2-cyclopropyl-6-methyl-1,4-dihydropyridine-3-carboxylate]

Reference: US11453660B2, “Androgen receptor and glucocorticoid receptor modulators” (ONCOSTELLAE, S.L., priority 2017, dated 2022)
